The target in assay [1] is T1, Dihydrofolate reductase (Rattus norvegicus, UniProt Q920D2).
T1 sequence (Q920D2 whole entry): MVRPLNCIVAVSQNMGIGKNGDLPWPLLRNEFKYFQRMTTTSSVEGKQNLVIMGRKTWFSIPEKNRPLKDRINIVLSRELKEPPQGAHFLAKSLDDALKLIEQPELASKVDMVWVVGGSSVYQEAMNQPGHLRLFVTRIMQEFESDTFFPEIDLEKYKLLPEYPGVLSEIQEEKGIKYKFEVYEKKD
Description: Inhibition of rat liver dihydrofolate reductase

Assay [2] addresses T2, Dihydrofolate reductase (Pneumocystis carinii, UniProt P16184).
T2 sequence (P16184 whole entry): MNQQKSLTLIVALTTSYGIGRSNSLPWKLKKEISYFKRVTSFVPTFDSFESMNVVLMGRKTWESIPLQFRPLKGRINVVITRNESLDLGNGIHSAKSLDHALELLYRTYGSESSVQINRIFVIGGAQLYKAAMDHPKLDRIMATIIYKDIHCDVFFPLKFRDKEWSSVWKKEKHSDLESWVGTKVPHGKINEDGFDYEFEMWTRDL
Description: Inhibition of Pneumocystis carinii dihydrofolate reductase

The target in assay [3] is T3, Dihydrofolate reductase (Mycobacterium avium, UniProt O30463).
T3 sequence (O30463 whole entry): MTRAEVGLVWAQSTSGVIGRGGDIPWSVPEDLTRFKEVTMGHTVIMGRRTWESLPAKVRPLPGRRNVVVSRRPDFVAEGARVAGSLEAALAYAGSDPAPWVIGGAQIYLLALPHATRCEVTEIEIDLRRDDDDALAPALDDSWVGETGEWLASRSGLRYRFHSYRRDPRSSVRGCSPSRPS
The experiment in a line: Inhibition of Mycobacterium avium dihydrofolate reductase.

Assay [4] deals with T4, Bifunctional dihydrofolate reductase-thymidylate synthase (Toxoplasma gondii, UniProt Q07422).
T4 sequence (Q07422 whole entry): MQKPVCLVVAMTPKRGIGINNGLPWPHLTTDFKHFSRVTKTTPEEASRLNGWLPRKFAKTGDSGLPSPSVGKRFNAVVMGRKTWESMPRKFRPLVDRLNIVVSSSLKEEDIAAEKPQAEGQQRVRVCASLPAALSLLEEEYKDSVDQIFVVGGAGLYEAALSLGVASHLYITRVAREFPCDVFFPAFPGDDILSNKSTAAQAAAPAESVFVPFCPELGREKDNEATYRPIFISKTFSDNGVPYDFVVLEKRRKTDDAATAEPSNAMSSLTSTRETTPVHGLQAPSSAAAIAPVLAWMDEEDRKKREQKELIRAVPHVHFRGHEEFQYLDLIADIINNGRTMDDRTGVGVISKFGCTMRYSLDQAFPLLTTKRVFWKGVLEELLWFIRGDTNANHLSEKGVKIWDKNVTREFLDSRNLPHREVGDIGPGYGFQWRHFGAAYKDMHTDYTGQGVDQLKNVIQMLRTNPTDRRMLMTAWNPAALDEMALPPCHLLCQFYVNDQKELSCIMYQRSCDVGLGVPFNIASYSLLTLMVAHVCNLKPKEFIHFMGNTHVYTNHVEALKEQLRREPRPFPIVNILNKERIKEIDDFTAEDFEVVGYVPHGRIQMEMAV
Description: Inhibition of Toxoplasma gondii dihydrofolate reductase

These results are taken from ChEMBL document CHEMBL1140088, “N9-substituted 2,4-diaminoquinazolines: synthesis and biological evaluation of lipophilic inhibitors of pneumocystis carinii and toxoplasma gondii dihydrofolate reductase” (J Med Chem, 2008).

What is called IC50 is the point on the concentration scale where inhibition reaches its midpoint. Read a high IC50 as weaker potency.

With `CCN(Cc1ccc2ccccc2c1)c1ccc2nc(N)nc(N)c2c1`, the IC50 came out at 14.5 nM at Dihydrofolate reductase [1], 7.2 nM at Dihydrofolate reductase [2], 2.3 nM at Dihydrofolate reductase [3] and 12 nM in assay [4].
`CCN(Cc1cc(Cl)cc(Cl)c1Cl)c1ccc2nc(N)nc(N)c2c1`: the IC50 on Dihydrofolate reductase [1] is 19 nM; against Dihydrofolate reductase [2], 6.9 nM; against Dihydrofolate reductase [3], 14 nM; in assay [4] it was 19 nM.
`CCCN(Cc1cc(OC)ccc1OC)c1ccc2nc(N)nc(N)c2c1`: the IC50 amounted to 5.3 nM against Dihydrofolate reductase [1], 38 nM against Dihydrofolate reductase [2], 3.3 nM against Dihydrofolate reductase [3] and 9.5 nM in assay [4].
In the case of `CCN(Cc1ccccc1)c1ccc2nc(N)nc(N)c2c1`, the IC50 on Dihydrofolate reductase [1] stood at 4.1 nM; against Dihydrofolate reductase [2], 21 nM; in assay [4], 3.6 nM.
In the case of `CCN(Cc1cc(OC)ccc1OC)c1ccc2nc(N)nc(N)c2c1`, the IC50 on Dihydrofolate reductase [1] was 4.8 nM; at Dihydrofolate reductase [2], 9.9 nM; at Dihydrofolate reductase [3] it was 0.98 nM; in assay [4], 3.7 nM.
On to `CCN(Cc1cccc2ccccc12)c1ccc2nc(N)nc(N)c2c1`, for which the IC50 was found to be 6.5 nM on Dihydrofolate reductase [1], 2.5 nM at Dihydrofolate reductase [2], 2.9 nM at Dihydrofolate reductase [3] and 7.8 nM in assay [4].
